These results are taken from US12268227B2, “Production of flavor concentrates by osmosis” (SYMRISE AG, priority 2017, dated 2025).

A short description of data set [1]: log P (n-octanol/water partition coefficient) of aroma substances. The format is physicochemical. The source says: [formula] • wherein: • C (n-octanol) is the concentration of the aroma substance in the n-octanol phase; and • C (water) is the concentration of the aroma substance in the water phase. The log K(n-octanol/water) is a dimensionless partition coefficient which indicates the ratio of the concentration of the aroma substance in a two-phase system of n-octanol and water. It is thus a model measure of the polarity or water/fat solubility of the aroma substance. Log P is a common physical parameter and is positive for lipophilic aroma substances and negative for hydrophilic aroma substances. The W parameter is therefore defined as follows: W=log10(SWF)

The nature of data set [2]: Odour threshold concentration in water. The procedure: The OAV value is defined as a measure of the significance of a specific component in the odour of a sample, for example, a foodstuff. The OAV value is calculated by dividing the concentration of a specific substance in the food (mg/kg) by the concentration threshold value of this substance in the food (mg/kg). If the OAV>1, the concentration of the substance exceeds the odour threshold concentration and the substance then makes a sensorial contribution to the overall profile.
The sensory recovery coefficient (SWF) of an aroma substance is composed of the log P of the aroma substance and the odour threshold concentration of the aroma substance (mg/kg in water) and is defined as follows: […]

Like-named read-outs stand apart in the source and are kept apart here.

With `CCCCCC=O` [hexanal], in data set [1] (read-out: logP), the logP was 1.85. This molecule gave a Threshold in data set [2] (odour threshold concentration) of 16 µg/kg in water.

With `CC=O` [acetaldehyde], in data set [1] (read-out: logP), the logP is -0.182. The molecule also yielded a Threshold in data set [2] of 63 µg/kg in water.

Turning to `CCCC(=O)O` [butyric acid], the Threshold in data set [2] (odour threshold concentration) amounted to 1000 µg/kg in water.

With `CC(C)=CCC/C(C)=C/C=O` [geranial], the logP in data set [1] (read-out: logP) is 3.19. This molecule also registered a Threshold in data set [2] (odour threshold concentration) of 320 µg/kg in water.

On to `CCC(=O)C(C)=O` [2,3-pentanedione], for which the logP in data set [1] (read-out: logP) worked out at 0.159. In addition, in data set [2] (odour threshold concentration), the Threshold was 5 µg/kg in water.

In data set [2] (odour threshold concentration), `CCO` [ethanol] had a Threshold of 52000 mg/kg in water.

`CCCCCC(=O)OCC` [ethyl hexanoate]: the logP in data set [1] (read-out: logP) turned out to be 2.41. The molecule further registered a Threshold in data set [2] (odour threshold concentration) of 5 µg/kg in water.

In the case of `C=CC(C)(O)CCC=C(C)C` (stereo not drawn) [linalool], the logP in data set [1] (read-out: logP) turned out to be 2.74. Besides, the Threshold in data set [2] (odour threshold concentration) was 103 µg/kg in water.

On to `CO` [methanol], for which the logP in data set [1] (read-out: logP) was -0.358. The molecule also returned a Threshold in data set [2] (odour threshold concentration) of 369828 mg/kg in water.

`CCCO` [propanol]: in data set [2], the Threshold worked out at 5700 µg/kg in water.

Turning to `CCOC(C)=O` [ethyl acetate], the Threshold in data set [2] (odour threshold concentration) amounted to 3120 µg/kg in water.

`CCCCC1CCC(=O)O1` (stereo not drawn) [gamma-octalactone] had a logP in data set [1] of 2.0901. Further, the Threshold in data set [2] (odour threshold concentration) came to 24 µg/kg in water.

As to `CC(=O)O` [acetic acid], the Threshold in data set [2] (odour threshold concentration) was 180000 mg/kg in water.

`CC(=O)C(C)=O` [2,3-butanedione]: the logP in data set [1] (read-out: logP) is -0.508. Further, the Threshold in data set [2] (odour threshold concentration) stood at 54 µg/kg in water.

On to `CCCC(=O)OCC` [ethyl butanoate], for which, in data set [1] (read-out: logP), the logP was determined as 1.49. Also, the Threshold in data set [2] (odour threshold concentration) was determined as 1 µg/kg in water.

Take `CCC(C)C=O` (stereo not drawn) [2-methylbutyraldehyde]: in data set [1] (read-out: logP), the logP stood at 1.4. This molecule also displayed a Threshold in data set [2] (odour threshold concentration) of 0.9 µg/kg in water.

As for `CCC=O` [propanal], the logP in data set [1] (read-out: logP) was 0.484. For the same molecule, the Threshold in data set [2] (odour threshold concentration) stood at 170 µg/kg in water.

As to `CC/C=C\CCO` [cis-3-hexenol], the logP in data set [1] (read-out: logP) is 1.44.

In data set [2] (odour threshold concentration), `CCCCCCO` [hexanol] showed a Threshold of 50 µg/kg in water.

Turning to `CCCCCC(=O)O` [hexanoic acid], in data set [1] (read-out: logP), the logP worked out at 1.81. In data set [2] (odour threshold concentration), this molecule returned a Threshold of 3940 µg/kg in water.

As a reminder, the logP is a log measure of how a compound divides between an organic and an aqueous phase.
